According to paper PMC6155387, “Alkoxy and Enediyne Derivatives Containing 1,4-Benzoquinone Subunits—Synthesis and Antitumor Activity” (Molecules : A Journal of Synthetic Chemistry and Natural …, 2017):

How the values were obtained:
Type in all cases: cell-based, human
[1] = tested on: HFF-1; experiment: antiproliferative activity (WST-1), normal fibroblasts HFF-1; conditions: Homo sapiens, normal fibroblasts HFF-1, 72 h, Neg: negative in the concentration used, read-out: IC50 ± SD HFF-1
Protocol: (§1) Biological activity of the tested compounds was assessed in vitro using cultured cell lines: melanoma C-32 (ATCC, Rockville, MD, USA), glioblastoma SNB-19 (DSMZ, Braunschweig, Germany), breast cancer MDA-MB-231 (ATCC, Rockville, MD, USA), and normal human fibroblasts derived from foreskin HFF-1 (ATCC, Rockville, MD, USA). Cell cultures were maintained using DMEM (Lonza, Basel, Switzerland) supplemented with 10% fetal bovine serum (FBS) (Biological Industries Cromwell, CT, USA) and a mixture of penicillin (10,000 U/mL) and streptomycin (10 mg/mL) (Lonza, Basel, Switzerland).
(§2) Cells were cultured using 96-well plates (Nunc Thermo Fisher Scientific, Waltham, MA, USA). Cells were seeded (5 × 10^3 cells/well) and incubated for 24 h in a standard incubator (37 °C, 5% CO2, relative humidity 95%). Subsequently, the medium was replaced with a fresh aliquot containing an examined compound (0.01; 0.05; 0.1; 0.5; 1; 5; 10; 50; 100 µg/mL), and cells were further incubated for another 72 h. Upon the conclusion of incubation, a CVDE test (Aniara, West Chester, OH, USA) using crystal violet was performed to assess the relative number of cells in the culture. A WST-1 test (Roche) was performed to examine the metabolic activity of cells and test for the presence of LDH in the medium (Roche Diagnostics GmbH, Mannheim, Germany), allowing for the assessment of the relative number of dead cells (i.e., cytotoxicity of the examined compound). UVM340 microplate readers (BIOGENET, Józefów, Poland) were used to read absorbance values.
(§3) WST-1 colorimetric assay for cell proliferation (Roche Diagnostics GmbH, Mannheim, Germany, reagent kit cat. 11644807001) is based on the viable cells’ ability to cleave the bright red-colored stable tetrazolium salt WST-1 to dark red soluble formazan. This bioreduction occurs under the influence of mitochondrial dehydrogenases (depends mostly on production of NAD(P)H in viable cells). The amount of formazan dye formed correlates directly with the number of metabolically active cells in the culture and is measured by absorbance (λ = 450 nm) following 1 h incubation of cells with the reagent.

[2] = tested on: C-32; experiment: antiproliferative activity (WST-1), melanoma C-32; conditions: for IC50: Homo sapiens, C32, melanoma C-32, 72 h, WST-1, Neg: negative in the concentration used, read-out: IC50 ± SD C-32; for SI (IC50 HFF-1/IC50 cancer line) C-32: selectivity index, HFF-1 vs C-32
Protocol: as §1, §2, §3

[3] = tested on: SNB-19; experiment: antiproliferative activity (WST-1), glioblastoma SNB-19; conditions: for IC50: Homo sapiens, glioblastoma SNB-19, 72 h, WST-1, Neg: negative in the concentration used, read-out: IC50 ± SD SNB-19; for SI (IC50 HFF-1/IC50 cancer line) SNB-19: selectivity index, HFF-1 vs SNB-19
Protocol: as §1, §2, §3

[4] = tested on: MDA-MB-231; experiment: antiproliferative activity (WST-1), breast cancer MDA-MB-231; conditions: for IC50: Homo sapiens, read-out: IC50 ± SD MDA-MB-231; for SI (IC50 HFF-1/IC50 cancer line) MDA-MB-231: selectivity index, HFF-1 vs MDA-MB-231
Protocol: as §1, §2, §3

[5] = breast cancer MDA-MB-231, 72 h, WST-1, Neg: negative in the concentration used

## O=C1C(Cl)=C(Cl)C(=O)c2ccccc21 [Compound 1, 2,3-Dichloro-1,4-naphtoquinon, reference compound]
[1]
  IC50: 15.6 ± 0.3 µM
[2]
  IC50: 25 ± 0.3 µM
  SI (IC50 HFF-1/IC50 cancer line) C-32: 0.62
[3]
  IC50: 26.6 ± 0.5 µM
  SI (IC50 HFF-1/IC50 cancer line) SNB-19: 0.59
[4]; [5]
  IC50: 31.9 ± 2.7 µM
[4]
  SI (IC50 HFF-1/IC50 cancer line) MDA-MB-231: 0.49

## Cc1ccc2c(n1)C(=O)C(Cl)=C(Cl)C2=O [Compound 3, 6,7-dichloro-2-methyl-5,8-quinolinedione]
[1]
  IC50: 10 ± 1.4 µM
[2]
  IC50: 10.5 ± 0.8 µM
  SI (IC50 HFF-1/IC50 cancer line) C-32: 0.95
[3]
  IC50: 15.9 ± 0.3 µM
  SI (IC50 HFF-1/IC50 cancer line) SNB-19: 0.63
[4]; [5]
  IC50: 23.3 ± 0.3 µM
[4]
  SI (IC50 HFF-1/IC50 cancer line) MDA-MB-231: 0.43

## CCCOC1=C(Cl)C(=O)c2ccccc2C1=O [Compound 4, 2-Chloro-3-propoxy-1,4-naphtoquinon]
[1]
  IC50: 14.8 ± 0.9 µM
[2]
  IC50: 16.8 ± 0.3 µM
  SI (IC50 HFF-1/IC50 cancer line) C-32: 0.88
[3]
  IC50: 18.4 ± 1.7 µM
  SI (IC50 HFF-1/IC50 cancer line) SNB-19: 0.80
[4]; [5]
  IC50: 1.4 ± 0.3 µM
[4]
  SI (IC50 HFF-1/IC50 cancer line) MDA-MB-231: 10.57

## C=CCOC1=C(Cl)C(=O)c2ccccc2C1=O [Compound 5, 2-Chloro-3-(2-propenoxy)-1,4-naphthoquinon]
[1]
  IC50: 3.8 ± 0.8 µM
[2]
  IC50: 4 ± 0.1 µM
  SI (IC50 HFF-1/IC50 cancer line) C-32: 0.95
[3]
  IC50: 3.8 ± 0.1 µM
  SI (IC50 HFF-1/IC50 cancer line) SNB-19: 1.00
[4]; [5]
  IC50: 6.9 ± 1.9 µM
[4]
  SI (IC50 HFF-1/IC50 cancer line) MDA-MB-231: 0.55

## C#CCOC1=C(Cl)C(=O)c2ccccc2C1=O [Compound 6, 2-Chloro-3-(2-propynoxy)-1,4-naphthoquinon]
[1]
  IC50: 3.9 ± 0.5 µM
[2]
  IC50: 3.2 ± 0.6 µM
  SI (IC50 HFF-1/IC50 cancer line) C-32: 1.22
[3]
  IC50: 8.4 ± 1.2 µM
  SI (IC50 HFF-1/IC50 cancer line) SNB-19: 0.46
[4]; [5]
  IC50: 21 ± 1.5 µM
[4]
  SI (IC50 HFF-1/IC50 cancer line) MDA-MB-231: 0.19

## CCCOC1=C(Cl)C(=O)c2ccc(C)nc2C1=O [Compound 10, 6-Chloro-2-methyl-7-propoxy-5,8-quinolinedione]
[1]
  IC50: 15.8 ± 1.8 µM
[2]
  IC50: 26.8 ± 1.9 µM
  SI (IC50 HFF-1/IC50 cancer line) C-32: 0.59
[3]
  IC50: 19.8 ± 1.4 µM
  SI (IC50 HFF-1/IC50 cancer line) SNB-19: 0.80
[4]; [5]
  IC50: 22.2 ± 1.4 µM
[4]
  SI (IC50 HFF-1/IC50 cancer line) MDA-MB-231: 0.71

## C=CCOC1=C(Cl)C(=O)c2ccc(C)nc2C1=O [Compound 11, 6-Chloro-2-methyl-7-(2-propenoxy)-5,8-quinolinedione]
[1]
  IC50: 20.1 ± 1.2 µM
[2]
  IC50: 168 ± 6.2 µM
  SI (IC50 HFF-1/IC50 cancer line) C-32: 0.12
[3]
  IC50: 33.8 ± 1.3 µM
  SI (IC50 HFF-1/IC50 cancer line) SNB-19: 0.59
[4]; [5]
  IC50: 24.6 ± 2.9 µM
[4]
  SI (IC50 HFF-1/IC50 cancer line) MDA-MB-231: 0.82

## C#CCOC1=C(Cl)C(=O)c2ccc(C)nc2C1=O [Compound 12, 6-Chloro-2-methyl-7-(2-propynoxy)-5,8-quinolinedione]
[1]
  IC50: 14 ± 2.4 µM
[2]
  IC50: 208 ± 4.6 µM
  SI (IC50 HFF-1/IC50 cancer line) C-32: 0.07
[3]
  IC50: 19.5 ± 1 µM
  SI (IC50 HFF-1/IC50 cancer line) SNB-19: 0.72
[4]; [5]
  IC50: 17.2 ± 2.5 µM
[4]
  SI (IC50 HFF-1/IC50 cancer line) MDA-MB-231: 0.81

## CCCOC1=C(OCCC)C(=O)c2ccccc2C1=O [Compound 13, 2,3-Dipropoxy-1,4-naphtoquinon]
[1]
  IC50: 10.8 ± 0.5 µM
[2]
  IC50: 22.6 ± 0.8 µM
  SI (IC50 HFF-1/IC50 cancer line) C-32: 0.48
[3]
  IC50: 19.9 ± 1.4 µM
  SI (IC50 HFF-1/IC50 cancer line) SNB-19: 0.54
[4]; [5]
  IC50: 22.6 ± 2.3 µM
[4]
  SI (IC50 HFF-1/IC50 cancer line) MDA-MB-231: 0.48

## C=CCOC1=C(OCC=C)C(=O)c2ccccc2C1=O [Compound 14, 2,3-di(2-Propenoxy)-1,4-naphthoquinon]
[1]
  IC50: 4.4 ± 0.9 µM
[2]
  IC50: 10.6 ± 0.6 µM
  SI (IC50 HFF-1/IC50 cancer line) C-32: 0.42
[3]
  IC50: 19.6 ± 1 µM
  SI (IC50 HFF-1/IC50 cancer line) SNB-19: 0.22
[4]; [5]
  IC50: 17.9 ± 0.8 µM
[4]
  SI (IC50 HFF-1/IC50 cancer line) MDA-MB-231: 0.25

## C#CCOC1=C(OCC#C)C(=O)c2ccccc2C1=O [Compound 15, 2,3-di(2-Propynoxy)-1,4-naphthoquinon]
[2]
  IC50: 21.7 ± 0.6 µM
  SI (IC50 HFF-1/IC50 cancer line) C-32: 0.62
[3]
  IC50: 18.6 ± 0.7 µM
  SI (IC50 HFF-1/IC50 cancer line) SNB-19: 0.73

## CCCOC1=C(OCCC)C(=O)c2nc(C)ccc2C1=O [Compound 19, 2-Methyl-6,7-dipropoxy-5,8-quinolinedione]
[1]
  IC50: 17.8 ± 1.8 µM
[2]
  IC50: 131 ± 2.4 µM
  SI (IC50 HFF-1/IC50 cancer line) C-32: 0.14
[3]
  IC50: 25.7 ± 1.4 µM
  SI (IC50 HFF-1/IC50 cancer line) SNB-19: 0.69
[4]; [5]
  IC50: 71.3 ± 3.9 µM
[4]
  SI (IC50 HFF-1/IC50 cancer line) MDA-MB-231: 0.25

## C=CCOC1=C(OCC=C)C(=O)c2nc(C)ccc2C1=O [Compound 20, 2-Methyl-6,7-di(2-propenoxy)-5,8-quinolinedione]
[1]
  IC50: 0.6 ± 0.2 µM
[2]
  IC50: 18.9 ± 1.7 µM
  SI (IC50 HFF-1/IC50 cancer line) C-32: 0.03
[3]
  IC50: 16.6 ± 3 µM
  SI (IC50 HFF-1/IC50 cancer line) SNB-19: 0.04
[4]; [5]
  IC50: 26.8 ± 1.2 µM
[4]
  SI (IC50 HFF-1/IC50 cancer line) MDA-MB-231: 0.02

## C#CCOC1=C(OCC#C)C(=O)c2nc(C)ccc2C1=O [Compound 21, 2-Methyl-6,7-di(2-propynoxy)-5,8-qunolinedione]
[1]
  IC50: 14.5 ± 2.6 µM
[2]
  IC50: 21.1 ± 1.2 µM
  SI (IC50 HFF-1/IC50 cancer line) C-32: 0.69
[3]
  IC50: 24.5 ± 1.1 µM
  SI (IC50 HFF-1/IC50 cancer line) SNB-19: 0.59
[4]; [5]
  IC50: 23.2 ± 1.5 µM
[4]
  SI (IC50 HFF-1/IC50 cancer line) MDA-MB-231: 0.63

## OCC#C/C=C\C#CCO [Compound 22, (Z)-oct-4-ene-2,6-diyne-1,8-diol]
[1]
  IC50: 260 ± 5.6 µM
[2]
  IC50: 159 ± 4.6 µM
  SI (IC50 HFF-1/IC50 cancer line) C-32: 1.64
[3]
  IC50: 250 ± 4.3 µM
  SI (IC50 HFF-1/IC50 cancer line) SNB-19: 1.04
[4]; [5]
  IC50 ± SD MDA-MB-231: Neg
[4]
  SI (IC50 HFF-1/IC50 cancer line) MDA-MB-231: 1.85

## O=C1C(Cl)=C(OCC#CC=CC#CCO)C(=O)c2ccccc21 [Compound 23, 2-Chloro-3-(8-hydroxy-4-octen-2,6-diynyloxy)-1,4-naphthoquinon]
[1]
  IC50: 97.6 ± 4 µM
[2]
  IC50: 145 ± 4.8 µM
  SI (IC50 HFF-1/IC50 cancer line) C-32: 0.67
[3]
  IC50: 186 ± 5 µM
  SI (IC50 HFF-1/IC50 cancer line) SNB-19: 0.52
[4]; [5]
  IC50: 22.5 ± 2.4 µM
